From ChEMBL document CHEMBL1201862, “PubChem BioAssay data set” (2004)
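Dose response: 5 concentrations. Exposure: 48 h. Format: 96-well plates. Endpoint: linear interpolation; highest concentration if not reached. At the GI50, growth is halved.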 Active and inactive are the calls of the source. Rule as the data show it: active = GI50 up to about 1.1 µM and inactive = higher.

Legend:
Experiment in all cases: inhibition of tumour cell growth, NCI panel, 48 h
MOLT-4 = system: MOLT-4
SF-268 = system: SF-268
RPMI-8226 = system: RPMI-8226
NCI-H522 = system: NCI-H522
SNB-19 = system: SNB-19
HL-60 = system: HL-60
HCT-15 = system: HCT-15
UACC-62 = system: UACC-62
OVCAR-4 = system: OVCAR-4
SK-MEL-28 = system: SK-MEL-28
SW-620 = system: SW-620
MCF7 = system: MCF7
IGROV-1 = system: IGROV-1
LOX IMVI = system: LOX IMVI
HCC 2998 = system: HCC 2998
OVCAR-5 = system: OVCAR-5
COLO 205 = system: COLO 205
OVCAR-3 = system: OVCAR-3
U-251 = system: U-251
NCI-H226 = system: NCI-H226

O=c1oc2cc(O)ccc2c2oc3cc(O)ccc3c12 [COUMESTROL]
GI50 (MOLT-4): 13.8 µM (inactive) | GI50 (SF-268): 53.7 µM (inactive) | GI50 (RPMI-8226): 45.8 µM (inactive) | GI50 (NCI-H522): 6.46 µM (inactive) | GI50 (SNB-19): 47.6 µM (inactive) | GI50 (HL-60): 6.93 µM (inactive) | GI50 (HCT-15): 54.5 µM | GI50 (UACC-62): 71.6 µM (inactive) | GI50 (OVCAR-4): 83.9 µM (inactive) | GI50 (SK-MEL-28): > 125 µM (inactive) | GI50 (SW-620): 59 µM (inactive) | GI50 (MCF7): 96.8 µM (inactive) | GI50 (IGROV-1): 79.8 µM (inactive) | GI50 (LOX IMVI): 42.1 µM (inactive) | GI50 (HCC 2998): 53.6 µM (inactive) | GI50 (OVCAR-5): > 125 µM (inactive) | GI50 (COLO 205): 26 µM (inactive) | GI50 (OVCAR-3): 45.2 µM (inactive) | GI50 (U-251): 33.3 µM (inactive) | GI50 (NCI-H226): 4.18 µM (inactive)

O=[N+]([O-])c1cnccc1-n1nnc2ccccc21
GI50 (MOLT-4): > 48 µM (inactive) | GI50 (SF-268): 18.8 µM (inactive) | GI50 (RPMI-8226): 32.9 µM (inactive) | GI50 (NCI-H522): 16 µM (inactive) | GI50 (SNB-19): 30.6 µM (inactive) | GI50 (HL-60): 16 µM (inactive) | GI50 (HCT-15): 18 µM | GI50 (UACC-62): 13.8 µM (inactive) | GI50 (OVCAR-4): 15.3 µM (inactive) | GI50 (SK-MEL-28): 19.9 µM (inactive) | GI50 (SW-620): 24.3 µM (inactive) | GI50 (MCF7): 13.4 µM (inactive) | GI50 (IGROV-1): 13.9 µM (inactive) | GI50 (LOX IMVI): 12.6 µM (inactive) | GI50 (HCC 2998): 19.7 µM (inactive) | GI50 (OVCAR-5): 32.1 µM (inactive) | GI50 (COLO 205): 17.9 µM (inactive) | GI50 (OVCAR-3): 17.8 µM (inactive) | GI50 (U-251): 22.5 µM (inactive) | GI50 (NCI-H226): 18.9 µM (inactive)

CSCSCC(N)CO.Cc1[nH]c(=O)[nH]c(=O)c1/C=C/C(=O)O
GI50 (MOLT-4): 590 µM (inactive) | GI50 (SF-268): > 625 µM (inactive) | GI50 (RPMI-8226): > 625 µM (inactive) | GI50 (NCI-H522): > 625 µM (inactive) | GI50 (SNB-19): > 625 µM (inactive) | GI50 (HL-60): > 625 µM (inactive) | GI50 (HCT-15): > 625 µM | GI50 (UACC-62): > 625 µM (inactive) | GI50 (OVCAR-4): > 625 µM (inactive) | GI50 (SK-MEL-28): > 625 µM (inactive) | GI50 (SW-620): > 625 µM (inactive) | GI50 (MCF7): > 625 µM (inactive) | GI50 (IGROV-1): > 625 µM (inactive) | GI50 (LOX IMVI): > 625 µM (inactive) | GI50 (HCC 2998): > 625 µM (inactive) | GI50 (OVCAR-5): > 625 µM (inactive) | GI50 (COLO 205): > 625 µM (inactive) | GI50 (OVCAR-3): > 625 µM (inactive) | GI50 (U-251): > 625 µM (inactive) | GI50 (NCI-H226): > 625 µM (inactive)
